Data published in US20140134136A1, “COMPOSITIONS AND METHODS FOR AUDITORY THERAPY” (MASSACHUSETTS EYE AND EAR INFIRMARY, priority 2012, published 2014).
Entries after “also recorded” stand apart in the source; their conditions may differ.

How the values were obtained:
[1] = system: Atoh1-ER-DsRed fusion protein; experiment: Nuclear localization in electroporated cochlear spheres; format: cell-based, mice
Text: (DAPI=blue; DsRed fluorescence=red). […] Yellow box highlights optimal conditions (+=nuclear localization in […] of cells; −/+≈50% nuclear localization; −=>0.10% nuclear localization.
Cochlear derived progenitor cells were generated and floating aggregates (cochlear spheres) propagated as previously described (Oshima et al., Journal of the Association for Research in Otolaryngology, 2007. 8(1): 18-31) with the following modifications. Cochleas were isolated from litters of P0-P3 ROSA26-GFP mice, the organs of Corti were dissected, pooled, trypsinized, triturated, and centrifuged. The pellet was re-suspended in SFM, filtered through a […] cell strainer, and cultured for 5 days in this same media supplemented with growth factors (10 ng/ml of FGF, IGF, EGF, Heparin sulfate). Floating aggregates were collected, centrifuged, triturated using a 100 μl pipette, re-suspended in 300 μl Optimem, and electroporated (8 pulses; 25 V; duration, 50 ms; interval, 100 ms with 2 mg/ml DNA in water, and incubated in 3:1 Fugene 6 overnight) using 50 μg of plasmid DNA. […] Finally, spheres from each of these groups were centrifuged, adhered to glass coverslips by incubation for 2-4 hours at 37° C. on glass coverslips coated with 1:1 poly-lysine/polyornithine, fixed in 4% paraformaldehyde for 20 minutes, washed three times in PBS, and stored at 4° C. for later analysis.

myosin 7a = experiment: Myosin 7a immunolabeling in transfected HEI OC1 cells; format: cell-based
Method: To test this, the expression of myosin 7a, which is a downstream target of Atoh1 signaling, was measured in HEI OC1 cells transfected with the Atoh1-ER-DsRed construct.

[2] = system: Atoh1-ER-DsRed fusion protein; experiment: Nuclear translocalization assay (DsRed fluorescence of isolated nuclei); format: cell-based; conditions: for DsRed fluorescence in the nuclear fraction: HEK cells transfected with CMV-Atoh1-ER-DsRed, p<0.05; for localization of Atoh1-ER-DsRed to the nucleus: HEK cells, graded doses; for time to complete cytoplasmic localization of the fusion protein after removal from the culture media: removal of 4OHT/tamoxifen from culture media
Method: Constructs were generated to express inducible Atoh1-ER fusion proteins (FIG. 1).
HEK cells were cultured until 50% confluent in 6-well culture dishes (type) then subjected to transfection using 3:1 target DNA to Fugene 6 Transfection Reagent (ROCHE). […] Cells were then processed for cytosolic and nuclear fractionation (BioVision). The isolated nuclear fraction collected from each of 5 sample wells per condition was mounted to a coverslip and average pixel density from 5 regions of interest (206.5×165.2 pixel at 20× magnification) was measured with a Cy3 ([…]) filter on a Zeiss epifluorescent microscope using MetaMorph software.

Atoh1 protein = experiment: Western blot analysis of Atoh1 protein; format: cell-based; conditions: transiently transfected HEK cells; different doses for 72 hr
Text: Whole cell protein was collected and processed for Western blot analysis. Positive control samples were transfected with a flag-tagged Atoh1 construct under control of a cmv promoter (flagAtoh1) and negative control samples were transfected with the DsRedER construct.
Control samples were similarly transfected with either DsRed-ER (negative control) or a positive control vector (cmv.flagAtoh1). Cells were lysed, the whole cell protein was collected and processed for Western blot analysis using either anti-Atoh1polyclonal antibody (Developmental Studies Hybridoma Bank) or a polyclonal anti-b-actin antibody (Sigma).

Atoh1 mRNA = Atoh1 mRNA expression by RT-PCR and qPCR; format: cell-based; conditions: HEK cells transiently transfected with Atoh1-ER-DsRed; different doses
Method: Transiently transfected HEK cells were incubated with different doses of 4OHT.
Next, total RNA was extracted from the cells by adding 1 ml Trizol reagent (Invitrogen) to each well for 5 min, cells were scraped into a 1.5 ml tube (1 tube/well), incubated with […] chloroform (in hood) for 2 min centrifuged for 20 min at 12,000 g at 4° C., supernatant was collected in a new 1.5 ml tube, incubated with 1:1 equivalent volume of 2-propanol equal volume to supernatant, and centrifuged through the RNeasy mini kit columns at 8000 g for 15 sec. RNA was eluted from the column by adding […] RW1, centrifuging the column at 8000 g 15 s, adding […] washes of RPE2 and re-centrifuging at 8000 g 15 s, adding one spin to dry membrane (10,000 g, 1 min), and eluting the RNA by adding […] RNAse free water into new 1.5 ml tube and centrifuging a final time at 8000 g for 15 s. […]
For quantitative PCR (qPCR) analysis, 300 μL of qPCR Master Mix (Invitrogen) was added to a PCR tube with 300 μL dH2O, which was then divided into 5 tubes (120 μL each). […] Quantitative PCR was performed and the amount of RNA was determined Delta delta Ct measurements were calculated for each treatment group, and then were normalized to fold change from groups incubated in the absence of tamoxifen. […]

[3] = system: Atoh1 5′ enhancer/promoter region; experiment: Luciferase assay of Atoh1 enhancer/promoter binding; format: cell-based; conditions: HEK cells stably transfected with Atoh1enhancer-luciferase and transiently with Atoh1-ER-DsRed; 72 hrs, increasing doses
Method: The stably transfected HEK cells were transiently transfected with either the cmv.Atoh1-ER-DsRed construct or a cmv.DsRed-ER control construct. […] All cells were also co-transfected with Renilla transfection controls.
The Atoh1 5′ enhancer/promoter region (Helms, Abney et al. 2000) was cloned into the MCS of the pGL3-Promoter Luciferase Reporter Vector (Promega), and was stably expressed on a HEK cell line using selection to […]. These cells were grown until 80% confluent on 6-well plates, and then transiently transfected with either the cmv.Atoh1 control vector, the cmv.Atoh1-ER-DsRed construct, or a cmv.DsRed-ER negative control construct using 3:1 target DNA to Fugene 6 Transfection Reagent. All cells were also co-transfected with Renilla transfection controls. […] Firefly luciferase activity was measured in a manual TD-20/20 Luminometer (Turner Designs).

[4] = system: alpha and beta isoforms of the estrogen receptor; conditions: cited from earlier work
organs of Corti = experiment: Organ of Corti explants electroporated with the construct; format: cell-based, mice; conditions: 1 μM tamoxifen
Text: The construct was electroporated into neonatal organs of Corti isolated from transgenic mouse pups that express GFP under control of the 5′ Atoh1 enhancer/promoter.

Atoh1 promoter/enhancer = experiment: Comparison of constructs (Atoh1 promoter/enhancer binding, mRNA transcription, protein translation); format: cell-based
Text: FIG. 1A-FIG. 1E are schematics depicting constructs used to generate an inducible Atoh1 fusion protein. FIG. 1A depicts the construct termed Flag-Atoh1-ER-DsRed. In order to measure the translocation of the fusion protein between the cytoplasm and […], a construct was engineered to include the DsRed transgene. To aid in the detection of Atoh1 (Atonal homolog 1), several experimental constructs were engineered to include one or two consecutive flag-tagged sequences (Vallier, Mancip et al. 2001). To obtain the tamoxifen sensitive Atoh1 construct, PCR cloning primers were designed so that 1) an EcoRI site was placed on the 5′ end and a Kozac sequence (CACC) was placed upstream of the Atoh1 start codon; 2) the Atoh1 stop codon (TAG) was deleted; 3) the flag tagged Atoh1 sequence was linked to an Estrogen Receptor (ER) sequence by the sequence […] (SEQ ID NO: 1) encoding a polypeptide linker; 4) the ER stop codon (TAG) was deleted; 5) the ER sequence was linked to a DsRed sequence by the sequence […] (SEQ ID NO: 2) encoding a polypeptide linker; and 6) a Not I site was included on the 3′ end. The linker sequences were designed to translate into multiple proline sequences, which provide an increased degree of freedom for the fusion protein subunits. […]

Molecule | localization of Atoh1-ER-DsRed to the nucleus [2] | time to complete cytoplasmic localization of the fusion protein after removal from the culture media [2] | Atoh1 mRNA expression (Atoh1 mRNA) | binding to / activation of the enhancer/promoter region of the Atoh1 gene [3] | preference of binding to estrogen receptor isoforms [4] | other results
CC/C(=C(\c1ccc(O)cc1)c1ccc(OCCN(C)C)cc1)c1ccccc1 [4OHT] | dose-dependent manner | ≤ 2 weeks | upregulates the expression of Atoh1 in a dose-dependent manner; also recorded: increase in Atoh1 mRNA expression | dose-dependent increase; also recorded: induced activation of the Atoh1 enhancer region |  | nuclear localization of the fusion protein ([1]; cochlear spheres from ROSA26-GFP mice, 1 nM, after 48 hrs): punctate nuclear localization; minimum effective dose ([1]; for 2-7 days (FIG. 3)): 1 nM; myosin 7a labeling (myosin 7a; HEI OC1 cells transfected with Atoh1-ER-DsRed, differentiating conditions (39° C.), 1 mM 4OHT for three days, p<0.001 vs vehicle): 79%; DsRed fluorescence in the nuclear fraction ([2]; 1 nM 4OHT for 72 hrs): 848.0+/−29.33 au; DsRed fluorescence in the nuclear fraction ([2]; 1 mM 4OHT for 72 hrs): 3,200.9+/−156.95 au; Atoh1 protein levels (Atoh1 protein): increased the concentration of cytosolic Atoh1 protein in a dose-dependent manner; also recorded: increase in Atoh1 protein levels
C[C@]12CC[C@@H]3c4ccc(O)cc4CC[C@H]3[C@@H]1CC[C@@H]2O [17-beta-estradiol] |  |  |  |  | binds equally well to both receptors | 
O=c1c(O)c(-c2ccc(O)c(O)c2)oc2cc(O)cc(O)c12 [Quercetin] |  |  |  |  | selectively binds to the estrogen receptor beta (ERβ) | 
O=C(c1ccc(OCCN2CCCCC2)cc1)c1c(-c2ccc(O)cc2)sc2cc(O)ccc12 [raloxifene] |  |  |  |  | bind preferentially to the alpha receptor | 
CC/C(=C(\c1ccccc1)c1ccc(OCCN(C)C)cc1)c1ccccc1 [tamoxifen] | dose-dependent localization | ≤ 2 weeks | increased the expression of Atoh1 in a dose-dependent manner | dose-dependent increase in binding |  | hair cells in electroporated organs of Corti (organs of Corti): supernumerary hair cells; myosin 7a positive cells within the spheres (myosin 7a; OC1 cells transfected with Atoh1-ER-DsRed, 3 days in differentiating conditions (39° C.)): significant increase; DsRed fluorescence against increasing Tamoxifen concentration ([2]; 1 μM): increased fluorescence compared to higher (100 μM) and lower doses (1 nM); minimum effective dose ([2]; for 2-7 days, HEK cells (FIG. 2)): 1 nM
Flag-Atoh1-ER: construct encoding a flag-tagged Atoh1-ER fusion protein without DsRed (SEQ ID NO: 16) |  |  |  |  |  | Atoh1 promoter/enhancer binding, Atoh1 mRNA transcription and Atoh1 protein translation compared with the flag-Atoh1-ER-DsRed construct (Atoh1 promoter/enhancer): on average higher than, but not significantly different from
